Data reported in patent EP2366394A1, “Characterization and validation of inhibitors and ligands of dipeptidyl aminopeptidase IV (DP IV)” (IMTM GmbH, priority 2010, dated 2011).
Like-named read-outs stand apart in the source and are kept apart here.

Experiments:
[1] = molecular target: purified, recombinant human DPIV (Homo sapiens, UniProt P27487); assay: Inhibition of the enzymatic activity of DPIV, fluorogenic substrate (Ala-Pro)2-R110; assay type: biochemical; conditions: substrate 0.5 µM, pH 7.5; highest test concentration 25 µM; > 25: No inhibition
purified, recombinant human DPIV, sequence (P27487 whole entry): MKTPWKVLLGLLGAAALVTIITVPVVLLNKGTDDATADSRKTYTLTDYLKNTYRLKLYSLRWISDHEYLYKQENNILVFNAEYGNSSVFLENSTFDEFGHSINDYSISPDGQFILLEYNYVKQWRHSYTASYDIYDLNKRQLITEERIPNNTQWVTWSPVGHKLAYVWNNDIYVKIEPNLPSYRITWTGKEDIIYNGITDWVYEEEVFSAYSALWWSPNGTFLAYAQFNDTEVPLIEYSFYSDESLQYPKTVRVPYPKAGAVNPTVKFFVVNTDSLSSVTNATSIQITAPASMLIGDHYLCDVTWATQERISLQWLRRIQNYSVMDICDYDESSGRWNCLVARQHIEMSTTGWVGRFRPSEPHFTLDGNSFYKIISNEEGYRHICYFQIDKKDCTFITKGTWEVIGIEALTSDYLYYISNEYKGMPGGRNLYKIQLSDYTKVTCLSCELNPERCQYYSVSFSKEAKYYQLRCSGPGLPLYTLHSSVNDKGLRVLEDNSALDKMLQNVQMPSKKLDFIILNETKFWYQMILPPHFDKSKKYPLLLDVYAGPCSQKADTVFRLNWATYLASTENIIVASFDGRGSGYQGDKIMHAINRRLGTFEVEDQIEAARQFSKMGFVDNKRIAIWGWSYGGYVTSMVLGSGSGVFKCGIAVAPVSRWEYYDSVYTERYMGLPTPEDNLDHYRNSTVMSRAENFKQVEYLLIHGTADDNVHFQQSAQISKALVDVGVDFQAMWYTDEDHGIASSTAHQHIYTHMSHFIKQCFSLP
Method: The assay was performed in 0.05 M TRIS/HCl buffer, pH 7.5, supplemented with 0.05 % Triton® (v/v), 0.05 % BSA (w/v), 2 mM MgCl2.
The enzymatic activity of DPIV was assessed by the hydrolysis of the fluorogenic substrate Bis-(L-Alanyl-Prolyl)-Rhodamin-110 (Bis-Trifluoroacetate; abbreviation: (Ala-Pro)2-R110). The final substrate concentration was 0.5 µM.
The assay was performed in white microtitre plates for fluorescence measurements. The test items, substrate and enzyme, were diluted in assay buffer. […] For the calculation of IC50 values, at least 16 log2 dilutions of each test item were analyzed. As controls, the DPIV activity in the absence of test items as well as the spontaneous hydrolysis of the substrate was determined.

T lymphocytes = assay: Inhibition of proliferation (DNA synthesis, tritium thymidine incorporation) of PHA-stimulated T lymphocytes; assay type: cell-based; conditions: Homo sapiens, T-lymphocyte, read-out: IC50(Tc) Measured DNA-Supp.
Method: Peripheral blood mononuclear cells (PBMC) from healthy human volunteers were freshly isolated by density gradient centrifugation. T lymphocytes (T cells, Tc) were isolated from PBMC fractions via nylon wool adherence. Cells were cultured in standard cell culture media and stimulated by addition of 1 µg/ml Phytohemagglutinine for 48 hours in 96 well flat-bottom microtitre plates. […] DNA synthesis of proliferating T cells was determined by incorporation of radio labelled tritium thymidine and subsequent radio detection. […] The IC50 value of proliferation suppression was assessed by graphical evaluation.

DP8/9 = assay: Inhibition of the enzymatic activity of DPIV related enzymes DP8/9; assay type: biochemical; conditions: > 25: No inhibition
Excerpt: Measurement of the enzymatic activity of DPIV and related enzymes

[2] = suppression of DNA synthesis of T cells, 1 µg/ml Phytohemagglutinine, 48 hours, graphical evaluation

Row | Structure (SMILES) | IC50 [1] | IC50 (T lymphocytes; [2]) | IC50 (DP8/9) | IC50 (T lymphocytes; 48 h)
1 | Cc1[nH]c2ccccc2c1C(c1cc(Cl)ccc1O)N1CCOCC1 (stereo not shown) [No. 16, 4-Chloro-2-[(2-methyl-1H-indol-3-yl)(morpholin-4-yl)methyl]-benzenolate] | > 25 µM | 3 µM |  | 
2 | CC[C@H](C)[C@H](N)C(=O)N1CCSC1 [No. 4, (1S,2S)-2-Methyl-1-(1,3-thiazolidine-3-ylcarbonyl) butyl amine] |  |  | 1.73 µM | 113 µM
3 | N[C@@H](CC(=O)N1CCn2c(nnc2C(F)(F)F)C1)Cc1cc(F)ccc1F [No. 1, (1R)-1-(2,5-Difluorobenzyl)-3-oxo-3-[3-(trifluoromethyl)-5,6-dihydro[1,2,4]triazolo[4,3-a]pyrazine-7(8H)-yl]propylamine] |  |  |  | 200 µM
4 | NC(CC(=O)N1CCN(C(c2ccc(F)cc2)c2ccc(F)cc2)CC1)C(=O)N1Cc2ccccc2C1 (stereo not shown) [No. 13, 2-Amino-1-(1,3-dihydro-2H-isoindol-2-yl)-4-(4-bis(4-fluorophenyl)-methylpiperazine-1-yl) butane-1,4-dione] |  |  |  | 6 µM
5 | NC(CNC(=O)c1cccc(NC(=O)C(O)C(N)Cc2ccc(-c3cccnc3)cc2)c1)Cc1cc(F)ccc1F (stereo not shown) [No. 15, 3-[(3-Amino-2-4-(4-(3-pyridinyl)-phenyl) hydroxybu-tanoyl)-amino]-N-(2-amino-5-(2,4-difluorophenyl)pentyl) ben-zamide] |  | 24 µM | 8.5 µM | 
6 | NC(CC(=O)N1CCn2c(nnc2C(F)(F)F)C1)Cc1cc(F)c(F)cc1F (stereo not shown) [No. 10, 3-Oxo-1-(2,4,5-trifluorobenzyl)-3-[3-(trifluoromethyl)-5,6-dihydro-[1,2,4]triazolo[4,3-a]pyrazine-7(8H)-yl]propyl amine] |  | 148 µM | 15.3 µM | 
7 | CC(C)(CNC(=O)CC(Cc1cc(F)ccc1F)NC(=O)OC(C)(C)C)CNC(=O)C(O)C(Cc1ccccc1)NC(=O)OC(C)(C)C (stereo not shown) [No. 6, 3-N-tert.-Butylcarbamato-5-phenyl-N-{3-[(3-amino-2-hydroxypropanoyl)-amino]-2,2-dimethylpropyl}-5-(2,5-difluorophenyl) pentane 3-amine] | > 25 µM |  | > 25 µM | 8 µM
8 | NC(CCCCNC(=O)c1ccc(S)nc1)C(=O)N1CCSC1 (stereo not shown) [No. 8, N-[5-Amino-6-oxo-6-(1,3-thiazolidine-3-yl)hexyl]-6-mercapto nicotinamide] | 0.09 µM |  | 0.001 µM | 90 µM
9 | CC(C)C(Oc1ccc(CNC(=O)C2CCCN2C(=O)CC(N)Cc2cc(F)ccc2F)cc1)C(=O)O (stereo not shown) [No. 2, 2-[({[1-(3-Amino, 2-(2, 5)-difluorophenylbutanoyl)pyrrolidin-2-yl]carbonyl}amino)-p-phenoxy]-3-methyl butanoic acid] | 0.48 µM | 81 µM | > 25 µM | 
10 | CCCCCC(=O)NC(CC(=O)NCC(C)(C)CNC(=O)C(O)C(Cc1ccccc1)NC(=O)CCCCC)Cc1cc(F)ccc1F (stereo not shown) [No. 7, 3-Amino-5-phenyl-N-{3-[(3-amino-1-oxohexyl-2-hydroxypropanoyl)amino-1-oxohexyl]-2,2-dimethylpropyl}-5-(2,5-difluorophenyl)pentane 3-N-tert.butyl carbamate] | > 25 µM |  | > 25 µM | 10 µM
